Assay results from a melting point compilation (Tetko et al.; mined from patent text by program, amines drawn as free bases though some values may be those of a salt).
Residues, ends and D or L forms follow the SMILES beside them. *: point of attachment. Cbz = O=C(OCc1ccccc1)*

Row | SMILES | melting point [°C]
1 | O=C(COc1cc(-c2ccc([N+](=O)[O-])cc2)nc2ccccc12)N1CCOCC1 | 172
2 | COC(=O)c1cc(C(F)(F)F)ccc1N | 51 to 52
3 | Oc1ccc(CCNc2ncnc3scnc23)cc1 | 161 to 168
4 | CN(C)c1cccc(-c2ccc3c(C(N)=O)nn(-c4ccc(S(N)(=O)=O)cc4)c3c2)c1 | 237 to 238
5 | CCCCc1nc(C(O)C(C)(C)C)c(C(N)=O)n1Cc1ccc(-c2ccccc2C(=O)O)cc1 (stereo not given) | 150 to 154
6 | CCOC(=O)c1c(C)cc2c(c1C)c(=O)n(-c1ccccc1Cl)c(=O)n2CC(N)=O | 285 to 287
7 | Cc1[nH]c(=O)c(C#N)cc1-c1ccccc1OCC(=O)O | 297 to 299
8 | CC1OC(=O)N2c3ccc(O)cc3CCC12 (stereo not given) | 258 to 259
9 | OCC[Si](c1ccccc1)(c1ccccc1)c1ccccc1 | 96 to 97
10 | Cn1c(C(=O)N2CCCC2)cc2cc(OCCNCC(O)COc3ccccc3)ccc21 (stereo not given) | 130
11 | CSCOc1cc(Cl)ccc1C=O | 67 to 68
12 | CCCC(=O)NCCC1=C(Cc2ccccc2)Cc2ccc(OC)cc21 | 127 to 129
13 | CCOCCOCc1ccc(-c2ccc3c(c2)C=C(C(=O)Nc2ccc(CN(C)C4CCOCC4)cc2)CCS3(=O)=O)cc1 | 184 to 186
14 | O=C(O)C(=O)c1cccc(Cl)c1 | 59 to 62
15 | COc1c(/C=C/c2ccc(NS(C)(=O)=O)cc2)cc(N2CCC(=O)NC2=O)cc1C(C)(C)C | 260 to 261
16 | CC(C)(C)OC(=O)n1cc(C(=O)C2CSC(c3cccnc3)N2)c2cccc(OCc3ccccc3)c21 (stereo not given) | 91 to 96
17 | COC(=O)CCCc1cc2nc(C(F)(F)F)ccc2[nH]1 | 137
18 | CCCN(CCC)Cn1cnc2c1c(=O)n(C)c(=O)n2C | 72 to 73
19 | O=C(O)c1ccc(NCC2CCCCCCC2)cc1 | 160 to 162
20 | Nc1ncnc2c1ncn2Cc1nc2cc(F)ccc2c(=O)n1-c1ccccc1Cl | 217
21 | Cc1n[nH]c2cc(-c3nn(Cc4oc5ccccc5c(=O)c4-c4cccc(F)c4)c4ncnc(N)c34)ccc12 | 246 to 248
22 | CCCCC(Cc1ccc(OCCNC(=O)c2ccc(-c3ccc(OC)cc3)cc2)cc1)C(=O)O (stereo not given) | 166 to 168
23 | CC(=O)c1ccc2c(c1)C(=O)C1(CCOC1=O)S2 (stereo not given) | 139 to 140
24 | CCOCc1nc2cnc3cc(-c4ccccc4)ccc3c2n1CCOc1ccccc1 | 137 to 138

Row | SMILES | melting point [°C]
25 | CN(c1ccc2ccccc2c1)S(=O)(=O)C(Cc1ccccc1)C(=O)NC(Cc1ccc(C#N)cc1)C(=O)N1CCCC1 (stereo not given) | 186
26 | NC(=O)c1ncn2c1CN=C(c1ccccc1)c1cc(Cl)ccc1-2 | 295 to 296
27 | CCCCCc1ccc(C(=O)CCCCC(=O)O)cc1 | 84 to 86
28 | OCc1cc(C(F)(F)F)ccc1I | 81 to 82
29 | CC(C)(C)OC(=O)Nc1cc(Cl)c(-c2ccccc2)cc1N | 109 to 111
30 | COc1cc(I)c(CC(C)N2CCCC2)cc1OC (stereo not given) | 87 to 88
31 | NCCCCn1cnc2c(N)nc3cccnc3c21 | 161 to 163
32 | COC(=O)C(NC(=O)C1CCCS1)C(C)C (stereo not given) | 55 to 65
33 | CCCCCNS(=O)(=O)NC(=O)/C=C/c1c(C)nn(C)c1-n1ccc2cc(Cl)ccc21 | 184
34 | CS(=O)CCN1CCC2(CC1)CC(=O)c1cc(NS(C)(=O)=O)ccc1O2 (stereo not given) | 181 to 183
35 | COc1cc2nc(N3CCN(C(=O)C4CCCC4)CC3)nc(N)c2cc1OC | 256 to 259
36 | O=C(O)c1cccc(-c2cccc3c2OC(Cc2cccc(C(F)(F)F)c2)C3)c1 (stereo not given) | 156 to 157
37 | COc1cc(CN2CCN(C)CC2C2=NCCN2)cc(OC)c1OC (stereo not given) | 185 to 187
38 | CCCCCCCCCCC1COC(=O)N1C(C)=O (stereo not given) | 51 to 53
39 | CSc1ccc(N=C=O)cc1C(F)(F)F | 40
40 | COc1ccc(C(=O)c2ccc3nc(Cl)nc(-c4cccc(Cl)c4)c3c2)cc1 | 164
41 | COc1cc(Cc2cnc(NC(C)=Nc3ccccc3)nc2N)cc(OC)c1OC | 189
42 | Cc1sc2c(Br)c3ccccc3c(-c3cc(Br)c(O)c(Br)c3)c2c1C | 172 to 174
43 | CNS(=O)(=O)C[C@H]1c2cc(OCCCC(F)(F)F)ccc2OC(C)(C)[C@@H]1O | 178 to 179
44 | Cc1cc(Nc2ccc(Cl)cc2)nc(-n2cc3ccccc3n2)n1 | 225 to 227
45 | CCCCCCCCCCCCCCCCCCNC(=O)OCC(CNS(=O)(=O)CCCCl)NC(C)=O (stereo not given) | 110 to 112
46 | CCN1CCN(Cc2ccc(-c3cc4ncc(C#N)c(Nc5cc(OC)c(Cl)cc5Cl)c4cc3OC)cc2)CC1 | 126 to 130
47 | O=C(CCc1nc(-c2ccc(Cl)cc2)co1)OC(c1ccccc1)c1ccccc1 | 94 to 95
48 | N#Cc1ccc(N2C(=O)[C@H]3C(O)C(O)CN3C2=O)c2ccccc12 (stereo not given in full) | 225

Row | SMILES | melting point [°C]
49 | CC1Cc2cc3c(cc2C(c2ccc([N+](=O)[O-])cc2)=NN1)OCO3 (stereo not given) | 162 to 164
50 | CCc1nc(C(=O)c2ccc(Cl)cc2Cl)c(C=O)n1C(CC)CC | 85 to 86
51 | O=C1C(c2ccccc2)=CC(=O)c2c(O)c(-c3ccccc3)cc(O)c21 | 170 to 173
52 | Fc1ccc(C(Cl)(c2ccccc2)c2ccccc2)cc1 | 88
53 | Oc1c(C2CCCC2)cc(CSCc2cc(C3CCCC3)c(O)c(C3CCCC3)c2)cc1C1CCCC1 | 149 to 150
54 | O=C(O)[C@@H]1CCCN1C(=O)C1CCCC1S (stereo not given in full) | 97
55 | CCN1CCCC1CNC(=O)c1ccc(Cl)nc1Cl (stereo not given) | 73 to 74
56 | COC(=O)[C@H](Cc1ccccc1)NC(=O)[C@H](CC(=O)O)NC(=O)OCc1ccccc1 (Cbz-Asp-Phe-OMe) | 113 to 116
57 | COC(=O)C1(NC(=O)Cc2cc(-c3ccc(Cl)cc3)ccc2Cl)CCCCC1 | 124
58 | O=C(c1ccc(F)cc1)C1CCN(CCN(C(=O)c2cccc([N+](=O)[O-])c2)c2ccc(F)cc2)CC1 | 97 to 113
59 | Cc1[nH]cnc1CN1CCc2c(c3cccc(OCc4ccccc4)c3n2COCc2ccccc2)C1=O | 170 to 172
60 | Cc1ccc(C[C@H]2NC(=O)O[C@H]2c2ccc(F)cc2)cc1OC(F)(F)C(F)F (racemic) | 112 to 113
61 | CN1CC(CO)C=C2c3cccc4c3c(cn4C)CC21 (stereo not given) | 216 to 217
62 | COc1ccc2nccc(NC(=O)C3CCN(CCc4cnc5ccccc5n4)CC3)c2n1 | 170
63 | CC(C)c1nc2c(cc1CO)COC(=O)N2c1ccc(F)cc1 | 154
64 | COC(=O)c1ccc(S(C)(=O)=O)c(CC#N)c1Cl | 151 to 155
65 | CCn1nc2c(N)nc3ncccc3c2c1CC(C)C | 273 to 276
66 | Cc1ccc(S(=O)(=O)Oc2ccc(C(=O)c3c(-c4ccccc4)cc4ccccn34)cc2)cc1 | 177 to 178
67 | CCC1(O)CC(=O)OCc2c1ccnc2OC (stereo not given) | 97 to 98
68 | O=[N+]([O-])c1ccc2[nH]c(-c3ccccc3)cc2c1 | 199 to 200
69 | CCOC(=O)C(=O)Nc1c([N+](=O)[O-])ccc2c1CCCC2 | 121 to 122
70 | CCCCOc1ccc(CCCOc2nn(CC)cc2CC(=O)O)c(Oc2ccc(C(F)(F)F)cn2)c1 | 81 to 82
